Here are results for 1 compound from patent US20090062355A1, “Pharmaceutical Product” (Takeda Pharmaceutical Company Limited, priority 2006, published 2009).

By IC50 is commonly meant the concentration at which inhibition is half-maximal.

The structures appear in SMILES notation. Like-named read-outs stand apart in the source and are kept apart here.

The subject of this test is Human Peripheral Blood Mononuclear Cell. Description: Suppressive action on production of mediator from human peripheral blood mononuclear cell. The following applies: LPS 10 ng/mL and INFα 1 U/mL, overnight, ELISA. Type of test: cell-based. The protocol:
Peripheral blood mononuclear cells were separated from three healthy subjects by a conventional method, suspended in RPMI1640 medium supplemented with 10% inactivated fetal bovine serum, and plated on a 96 well microplate at 8×10^4 cells/well. Test compound 2 (compound 8′ of Reference Example D7), LPS (final concentration 10 ng/mL) and INFα (final concentration 1 U/mL) were added, cultured overnight, and TNF-α, IL-6 and IL-8 in the culture supernatant was quantified using a commercially available ELISA kit. Test substance was dissolved in N,N-dimethylformamide to 10 mM, diluted with the medium to 10-fold concentration of the final concentration and 1/10 thereof was added. Test compound 2 suppressed production of TNFα, IL-6 and IL-8 at an equivalent IC50. In addition, no difference in the suppressive activity was found in the peripheral blood mononuclear cells of the three subjects.

Consider `CCOC(=O)C1=CCOCC1S(=O)(=O)Nc1ccc(F)cc1Cl` (stereo not drawn) [test compound 2, ethyl 3-[(2-chloro-4-fluorophenyl)sulfamoyl]-3,6-dihydro-2H-pyran-4-carboxylate], for which the IC50 reads like this: (subject A, read-out: IC50, IL-6 production) 36 nM; (subject A, read-out: IC50, IL-8 production) 83 nM; (subject A, read-out: IC50, TNF-α production) 43 nM; (subject B, read-out: IC50, IL-6 production) 51 nM; (subject B, read-out: IC50, IL-8 production) 130 nM; (subject B, read-out: IC50, TNF-α production) 39 nM. Besides, the IC50 is, setting by setting: (subject C, read-out: IC50, IL-6 production) 35 nM; (subject C, read-out: IC50, IL-8 production) 81 nM; (subject C, read-out: IC50, TNF-α production) 32 nM.
